{
  "source": "patent US5565475A",
  "about": "“Method of treating urinary bladder dysfunctions with 3-tetrahydropyridine derivatives” (priority 1994, dated 1996)",
  "key": {"muscarinic receptors": {"biological_target": "muscarinic receptors", "test": "Inhibition of 3H-oxotremorine-M binding to muscarinic receptors (rat cerebral cortical membranes)", "design": "species or system rat (male Sprague-Dawley)", "conditions": "3 nM 3H-oxotremorine-M, pH 7.4, 15 minutes at 25° C., read-out: Inhibition of 3H-Oxo", "experimental": "The affinity of the compounds for the muscarinic receptors was determined using the non-selective agonist ligand, ^3 H-oxotremorine-M. Birdsdall N. J. M., Hulme E. C., and Burgen A. S. V., \"The Character of Muscarinic Receptors in Different Regions of the Rat Brain\", 207 Proc. Roy. Soc. 1 (London, Series B, 1980). Each compound was tested to determine the affinity of the compound for the muscarinic receptors using the following procedure.\nFor in vitro binding, male Sprague-Dawley (Harlan Sprague-Dawley, Indianapolis, IN) rats weighing from about 100 to about 150 grams each were sacrificed by decapitation. The brains were quickly removed and the cerebral cortex were dissected from the brain. The cerebral cortex tissue was homogenized in 10 volumes of 0.32M sucrose and homogenized for about 10 minutes at about 1000×g. The supernatant was centrifuged at about 12,000×g for about 10 minutes and the resulting pellet was resuspended in 20 mM tris-Cl, pH 7.4. The resuspended pellet was centrifuged again for about 10 minutes at about 50,000×g. The resulting homogenate was preincubated for about 10 minutes at about 25° C. and centrifuged again for about 10 minutes at about 50,000×g. The pellet was resuspended at 1 gram of pellet per 3 ml of buffer and frozen at about -80° C. until used.\nThe aforementioned homogenates mixture was incubated for about 15 minutes at about 25° C. and then the homogenates were filtered through glass filters (Whatman, GF/C) with vacuum. The filters were washed 3 times with about 2 ml of cold tris-Cl buffer, and placed in scintillation vials containing about 10 ml of scintillation fluid (Ready Protein+, Beckman, Fullerton, Calif.). Radioactivity trapped on the filters was determined by liquid scintillation spectrometry. Nonspecific binding was determined using 1 μM atropine."}, "vesico-anal reflex": {"tested_on": "vesico-anal reflex", "test": "Acetic acid-induced vesico-anal reflex (model of visceral nociception)", "assay_type": "in vivo, rat (female Sprague-Dawley)", "conditions": "for duration of the increase in vesico-anal reflex activity / increases in vesico-anal reflex activity when administered alone: atropine 30 μg/kg-1 mg/kg, oxybutynin 1-3 mg/kg, administered alone", "excerpt": "The model of visceral nociception that was used in the testing of the compounds according to the method of this invention is the acetic acid-induced vesico-anal reflex. This model utilizes infusion of a dilute acetic acid solution into the urinary bladder as a nociceptive stimulus and records increases in electromyographic (EMG) activity from the anal sphincter as the primary measured response. Anal sphincter EMG activity is composed of 2 components, 1) a small, long duration action potential (ca. 50 msec) that is sensitive to muscarinic antagonists and 2) a larger, short duration action potential (ca. 2 msec) that is sensitive to neuromuscular blocking agents (i.e. mediated by nicotinic receptors). These components represent rectal longitudinal smooth muscle activity and external anal sphincter striated muscle activity, respectively, and have been described in detail in a separate publication (Muhlhauser reference). It is the striated anal sphincter muscle activity that 1) is associated with bladder activity, 2) is increased by acetic acid infusion into the bladder, and 3) represents the vesico-anal reflex. The acetic acid-inducedincrease in vesico-anal reflex activity is maintained for over 2 hours in 95% of the animals.\nIn the acetic acid-induced vesico-anal reflex model, bladders of urethane-anesthetized rats were cannulated through the dome for continuous-infusion cystometrogram recordings. EMG electrodes were inserted into the anus and the peri-urethral musculature for recording anal and urethral sphincteric activity, respectively. Infusion of 0.5% acetic acid into the bladder or urethra produced modest increases in bladder contractile activity and urethral sphincter activity and pronounced increases in anal sphincter activity (i.e. an increase in the vesico-anal reflex). […] These studies indicate that a tonically-active, endogenous, cholinergic muscarinic system plays a role in the suppression of visceral nociception arising from the lower urinary tract.\nFemale Sprague-Dawley rats (200-300 g) were anesthetized with 1.4 g/kg urethane (0.7 g administered i.p. and 0.7 g administered s.c.), which was supplemented with 1% isoflurane during surgery. The urinary bladder was exposed through an abdominal incision and cannulated with PE60 tubing attached to a 22 gauge needle that was inserted through the dome of the bladder. A purse-string suture (5-0 silk) through the bladder held the needle in place. The cannula was connected to an infusion pump (Harvard Apparatus, ratus, Natick Mass.) and a pressure transducer (Statham Gould, Cleveland, Ohio) through a 3 way stopcock to allow bladder filling and pressure measurement, respectively. The abdominal incision was covered with plastic wrap. A small incision was made in the perineum to allow placement of EMG electrodes into the periurethral musculature. EMG electrodes were also placed into the muscular tissue of the anus. EMG electrodes were connected to preamplifiers (Grass P511, Quincey, Mass.) with low and high pass filters set at 10 and 3000 HZ. […] A catheter inserted into the carotid artery was connected to a pressure transducer (Statham Gould, Cleveland, Ohio) to record arterial pressure, which was used to trigger a heart rate meter (Biotach, Gould, Cleveland, Ohio). A catheter was inserted into the trachea to allow for artificial respiration and monitoring of expired CO2 (Sensor Medics, Anaheim, Calif.). EMG potentials, rate meter output, bladder and arterial pressure, heart rate, and expired CO2 measurements were recorded on a physiograph (Gould, TA4000, Cleveland, Ohio) and stored on an 8-channel digital audio tape recorder (SONY PC-108M, Tokyo, Japan).\nAfter establishing control levels of anal and urethral activity, compounds were administered intravenously. […]"}},
  "note": "Counter-ions that a name gives are not always drawn.",
  "data": [
    {"smiles": "COc1nsnc1C1=CCCN(C)C1", "note": "[Compound 1, 1,2,5,6-Tetrahydro-3-(3-methoxy-1,2,5-thiadiazol-4-yl)-1-methylpyridine oxalate]", "values": [
      {"measurement": "IC50", "setting": "muscarinic receptors", "value": 22, "unit": "nM"}
    ]},
    {"smiles": "CCOc1nsnc1C1=CCCN(C)C1", "note": "[Compound 2, 3-(3-Ethoxy-1,2,5-thiadiazol-4-yl)-1,2,5,6-tetrahydro-1-methylpyridine oxalate]", "values": [
      {"measurement": "IC50", "setting": "muscarinic receptors", "value": 5.7, "unit": "nM"}
    ]},
    {"smiles": "CCCOc1nsnc1C1=CCCN(C)C1", "note": "[Compound 3, 1,2,5,6-Tetrahydro-1-methyl-3-(3-propoxy-1,2,5-thiadiazol-4-yl)pyridine oxalate]", "values": [
      {"measurement": "IC50", "setting": "muscarinic receptors", "value": 1.6, "unit": "nM"}
    ]},
    {"smiles": "CCCCOc1nsnc1C1=CCCN(C)C1", "note": "[Compound 4, 3-(3-Butoxy-1,2,5-thiadiazol-4-yl)-1,2,5,6-tetrahydro-1-methylpyridine oxalate]", "values": [
      {"measurement": "IC50", "setting": "muscarinic receptors", "value": 2, "unit": "nM"}
    ]},
    {"smiles": "C=CCCCCOc1nsnc1C1=CCCN(C)C1", "note": "[Compound 33, 3-(3-(5-Hexenyloxy)-1,2,5-thiadiazol-4-yl)-1,2,5,6-tetrahydro-1-methylpyridine oxalate]", "values": [
      {"measurement": "IC50", "setting": "muscarinic receptors", "value": 2.7, "unit": "nM"}
    ]},
    {"smiles": "CCCSc1nsnc1C1=CCCN(C)C1", "note": "[Compound 47, 3-(3-Propylthio-1,2,5-thiadiazol-4-yl)-1,2,5,6-tetrahydro-1-methylpyridine oxalate]", "values": [
      {"measurement": "IC50", "setting": "muscarinic receptors", "value": 0.9, "unit": "nM"}
    ]},
    {"smiles": "O=C1CCCN1CC#CCN1CCCC1", "note": "[Oxotremorine]", "values": [
      {"measurement": "reversal of the inhibition of vesico-anal reflex activity by atropine", "setting": "vesico-anal reflex; atropine 0.3-1 mg/kg", "value": "reversed by atropine"},
      {"measurement": "vesico-anal reflex activity (inhibited to % of control)", "setting": "vesico-anal reflex; oxotremorine 1-30 μg/kg iv, test compounds 0.01-1.0 mg/kg iv", "value": "10 % of control"},
      {"measurement": "inhibition of vesico-anal reflex activity", "setting": "vesico-anal reflex; oxotremorine 1-30 μg/kg iv, test compounds 0.01-1.0 mg/kg iv, urethane-anesthetized rats, 0.5% acetic acid", "value": "dose-dependent inhibition of vesico-anal reflex activity"}
    ]},
    {"smiles": "C[N+]1(C)[C@@H]2C[C@@H](OC(=O)[C@H](CO)c3ccccc3)C[C@H]1[C@@H]1O[C@@H]12", "note": "[Scopolamine methyl bromide]", "values": [
      {"measurement": "blocking of the cholinergic agonist-mediated inhibition of the vesico-anal reflex", "setting": "vesico-anal reflex; 1-30 ug/kg", "value": "ineffective at blocking the cholinergic agonist-mediated inhibition of the vesico-anal reflex"}
    ]},
    {"smiles": "CN1[C@@H]2CC[C@H]1C[C@@H](OC(=O)C(CO)c1ccccc1)C2", "note": "(stereo partly drawn) [atropine]", "values": [
      {"measurement": "duration of the increase in vesico-anal reflex activity", "setting": "vesico-anal reflex", "value": 15, "unit": "min"},
      {"measurement": "increases in vesico-anal reflex activity when administered alone", "setting": "vesico-anal reflex", "value": "robust, but transient"}
    ]},
    {"smiles": "CCN(CC)CC#CCOC(=O)C(O)(c1ccccc1)C1CCCCC1", "note": "(stereo not drawn) [oxybutynin]", "values": [
      {"measurement": "duration of the increase in vesico-anal reflex activity", "setting": "vesico-anal reflex", "value": 15, "unit": "min"},
      {"measurement": "increases in vesico-anal reflex activity when administered alone", "setting": "vesico-anal reflex", "value": "robust, but transient"}
    ]},
    {"smiles": "CNC(=O)Oc1ccc2c(c1)[C@]1(C)CCN(C)[C@@H]1N2C", "note": "[physostigmine]", "values": [
      {"measurement": "suppression of the VA reflex by cholinesterase inhibitors", "setting": "vesico-anal reflex; rat, in vivo", "value": "suppressed the VA reflex in a dose-dependent, atropine-sensitive manner"}
    ]}
  ]
}
